From ChEMBL document CHEMBL3507680, “University of Dundee, Gates Library screen for HepG2 cell viability”

Experiment: Human HepG2 cell viability assay in 384 well format
Format: toxicity, cell-based
Parameters: dose 125 nL, time 70.5 hour; concentration not given beside the values
Conditions: HepG2 cells, read-out: Inhibition

Structure (SMILES)	cytotoxicity at 70.5 h [%]
COCCN1CCC(c2nc3cc(C)ccc3[nH]2)CC1	-8.34
Cc1cc(C)nc(C2CCN(C3CCOCC3)C2)n1 (stereo not drawn)	-11.5
O=C(O)c1ccccc1-c1ccc(Cn2c(=O)cc[nH]c2=O)cc1	-0.721
Oc1nc(C2CCN(Cc3ccccn3)CC2)cc2ccccc12	32.3
COc1cccc(CN2CCCC2c2cncc(Nc3nncs3)n2)c1 (stereo not drawn)	12.9
c1ccc(CCN2CCCC2c2cncc(Nc3nncs3)n2)cc1 (stereo not drawn)	10.6
O=C(c1cccc(O)n1)N1CCC(O)(CN2CCC(F)(F)CC2)C1 (stereo not drawn)	-8.18
CN(C)CC(=O)N1CCOCC(Cc2ccccn2)C1 (stereo not drawn)	-13.2
O[C@H]1CN(Cc2ccnc(N3CCCC3)n2)CC[C@@]12CCCO2	-9.21
CCC(=O)N1CCC(c2nc(C)c3c(n2)N(C)CCC3)CC1	-2.67
CC(=O)N1CCC(c2nccnc2Nc2cnccn2)CC1	-10.2
Cc1cc(N2CCOC(c3ccc(C(N)=O)cn3)C2)ncn1 (stereo not drawn)	19.9
Cn1ccc(NC(=O)CN2CCC(Oc3cnccn3)CC2)n1	1.93
O=C(NC[C@H]1CC[C@H](c2ccnc3ncnn32)CC1)C1CC1	22.4
CN1N=C(C(=O)NCCc2csc(-c3ccccc3)n2)CCC1=O	-4.18
CC(Cc1ccccc1F)C(=O)Nc1cccc(OCC(N)=O)c1 (stereo not drawn)	-2.21
Cc1ccc(C(=O)NS(=O)(=O)Cc2ccc(F)cc2)cc1S(C)(=O)=O	-3.12
NC(=O)N1CCC(NCc2cc(C(F)(F)F)ccc2Cl)CC1	-5.57
O=C(CCc1nnc(-c2ccccc2)o1)N1CCCC1c1ccccn1 (stereo not drawn)	1.97
Cc1ccc(O)c(CNc2cccc(CN3CCSCC3)c2)n1	1.03
CN(Cc1cnn(C)c1)CC(O)c1ccc2c(c1)OCCCO2 (stereo not drawn)	17.4
CC(CNC(=O)c1cc(-n2cccn2)ccn1)Cn1ccnc1 (stereo not drawn)	-0.0471
Cc1c(C(=O)N(C)CC(F)(F)F)nnn1-c1ccccc1Cl	6.88
CC(CNC(=O)c1cccc(-n2cccn2)c1)Cn1ccnc1 (stereo not drawn)	2.48

Structure (SMILES)	cytotoxicity at 70.5 h [%]
CN(C)CCOc1ccccc1N1CCN(C(=O)C(C)(C)C#N)CC1	-0.199
CN(C)c1ccc(CNC(=O)Nc2ccc(S(=O)(=O)C(F)F)cc2)cc1	-0.147
COc1ccccc1N1CCN(C(=O)c2ccoc2)CC1	-6.02
Cc1cccc(NCC(=O)NC2(C#N)CCCC2)c1C(=O)N1CCCC1	2.28
O=c1oc(-c2cccs2)nn1CC1(O)CCCCC1	-1.35
CS(=O)(=O)c1ccc(NC(=O)NCc2ccc(F)cc2)cn1	-0.885
COc1ccc(C(=O)Nc2nncs2)cn1	27.2
COc1cc(NCC(=O)NC(C)(C#N)C(C)C)cc(OC)c1OC (stereo not drawn)	-0.783
COc1ncccc1NC(=O)c1[nH]nc(C(C)C)c1Br	-8.6
Cn1ccnc1CN1CCCN(C(=O)C2(C#N)CCCCC2)CC1	1.4
CN(C)CCOc1ccccc1N1CCN(C(=O)c2ccoc2)CC1	2.2
CC(NC(=O)N1CCS(=O)(=O)CC1)c1ccc(F)cc1Cl (stereo not drawn)	-1.2
CC(CNC(=O)c1cccc(-n2cccn2)n1)Cn1ccnc1 (stereo not drawn)	-2.98
CC(C)c1cc(C(=O)N(c2ccc(F)cn2)C2CCOCC2)nn1C	3.21
O=C(c1ccncc1F)N1CCOC(c2cccc(O)c2)C1 (stereo not drawn)	2.22
COc1ccc(-c2nc(CSC3CCCCNC3=O)co2)cc1 (stereo not drawn)	-3.03
CCn1ccnc1CN1CCCN(C(=O)C2(C#N)CCCCC2)CC1	-3.94
O=C(Cc1cccs1)N1CCOC(c2cccc(O)c2)C1 (stereo not drawn)	0.631
COc1ccc(C)cc1C1(CNc2cn[nH]c(=O)c2Cl)CCOCC1	-5.9
Cc1ccc(O)c(C(=O)NCCCS(=O)(=O)Cc2ccccc2)c1	-11.4
NC(=O)CCOc1ccc(NC(=O)c2ccccc2OC(F)F)cc1	3.32
CCNC(=O)Nc1cccc(F)c1C(=O)NC1CCCC1	-6.92
O=C(CCc1cc(Br)cs1)NCCCn1ccnc1	5.85
CCn1nnnc1-c1cccc(NC(N)=O)c1	-5.79

Structure (SMILES)	cytotoxicity at 70.5 h [%]
CC1CS(=O)(=O)CCN1Cc1ccccc1OCC(F)(F)F (stereo not drawn)	-6.75
O=c1[nH]c(=O)n(CC(O)c2ccccc2Cl)cc1Cl (stereo not drawn)	-5.98
CC(C)NC(=O)CCNC(=O)CCc1cc(Br)cs1	-6.47
CC(C)(C)c1ccc2c(c1)CCN2C(=O)c1nc(=O)[nH][nH]1	0.34
Cc1cncc(NCc2ccccc2N2CCOCC2)c1	3.08
O=S(=O)(c1ccccc1)N1CCCC(Cn2cncn2)C1 (stereo not drawn)	-4.76
CCC(C)C(=O)NCc1ccn(-c2ccc(F)cc2)n1 (stereo not drawn)	8.14
O=C(Cc1ccc(F)cc1)NCc1ccc(C(=O)O)o1	-2.52
O=C(C1CCOc2ccccc21)N1CCOc2ccc(F)cc21 (stereo not drawn)	-9.88
CC(C)n1nc2c(cc1=O)CN(CC1CCCCO1)CC2 (stereo not drawn)	-5.1
CCC(C(=O)NCc1ccn(-c2ccc(F)cc2)n1)N1CCCC1=O (stereo not drawn)	5.43
CCN(Cc1ccoc1)C(=O)c1ccncc1O	-9.48
COc1ccc(NC(=O)c2cccc(OC)c2OC)cc1	-3.77
CN(CC(=O)NCC(F)(F)F)Cc1cccc2c1OCCO2	14.8
CC(OCC1CC1)C(=O)Nc1nccn1Cc1ccccc1 (stereo not drawn)	-14.6
CN(Cc1cc(Br)c2c(c1)OCO2)Cc1cscn1	-14.1
COc1cc(F)ccc1NC(=O)NC(C)C(=O)NC(C)(C)C (stereo not drawn)	-4.93
Cc1ccc(C)c(CC(=O)NC2CCS(=O)(=O)CC2)c1	-10.2
Cc1noc(C)c1C(C)NC(=O)N1CCCN(C(=O)c2ccsc2)CC1 (stereo not drawn)	-13.8
CC(C)Nc1ncccc1C(=O)NC1CC(=O)N(CC(F)(F)F)C1 (stereo not drawn)	-2.71
CCCNC(=O)CCNC(=O)N1CCC(=Cc2ccccc2)CC1	-4.61
NC(=O)C1CCCN1CCCc1ccc(C(F)(F)F)cc1 (stereo not drawn)	-5.39
CC(NC(=O)Nc1cccnc1N1CCOCC1)c1ccccn1 (stereo not drawn)	-8.36
CNC(=O)N1CCC(=Cc2ccccc2)CC1	-12

Structure (SMILES)	cytotoxicity at 70.5 h [%]
NC(=O)C1CCN(CCCc2ccc(C(F)(F)F)cc2)CC1	3.34
Cc1ccc(CNC(=O)NC2CCC(O)CC2)c(N2CCCC2)c1 (stereo not drawn)	-10.5
Cc1ccc(CNC(=O)NCC(=O)NC(C)(C)C)c(N2CCCC2)c1	-16.8
N#CC1(NC(=O)c2nccc3ccccc23)CCSCC1	-9.79
CSC(C)C(=O)NS(=O)(=O)CCc1ccccc1 (stereo not drawn)	-2.58
CC(C)CC(CCO)CNC(=O)N1CCOC2(CCCC2)C1 (stereo not drawn)	-1.95
CCc1noc(C(C)N2CCN(CCc3ccncc3)CC2)n1 (stereo not drawn)	-5.36
CCn1ccnc1CN1CCN(C(C)C(=O)NCc2ccco2)CC1 (stereo not drawn)	16.6
CC(C)n1cnnc1CNC(=O)c1cnc2ccccc2n1	-3.77
OC1(CN2CCOC(Cn3cncn3)C2)CCCCC1 (stereo not drawn)	2.37
O=C1CCN(C(=O)NCc2cccc(Oc3ccccc3)c2)CCN1	-6.34
CC(C)(C)C1CCC(O)(CNC(=O)CCS(C)(=O)=O)CC1 (stereo not drawn)	-4.23
O=C1CCN(C(=O)NCc2ccccc2Oc2ccccc2)CCN1	2.87
CC(=O)NCCC(=O)NC(C)c1sc(-c2ccccc2F)nc1C (stereo not drawn)	-5.17
Cn1c(=O)n(C)c2cc(NS(=O)(=O)Cc3cccc(F)c3)ccc21	-6.9
N#Cc1ccc(CN2CCN(c3cncc(Cl)n3)CC2=O)cc1	-4.86
CCOc1ccc(Cl)c(C(=O)N2CCCC(c3cc(C)[nH]n3)C2)n1 (stereo not drawn)	-2.21
O=C(c1sccc1-n1cnnn1)N1CCC2(CCCCC2)CC1	11.8
CC(Cn1cncn1)NC(=O)N1CC2(CCCC2)c2ccccc21 (stereo not drawn)	-1.39
CNC(=O)C1CCCN1C(=O)NCCCc1cccc(F)c1 (stereo not drawn)	1.01
Cc1cc(C(=O)Nc2ccc(-c3nnc(N(C)C)o3)cc2)oc1C	14.7
O=C(NCc1ccc(Br)cc1)C1(O)CCSCC1	-1.14
O=C(NCc1cc(F)cc(Br)c1)C1(O)CCSCC1	-4.03
O=C(NCc1ccc(Br)cc1F)C1(O)CCSCC1	-2.81

Structure (SMILES)	cytotoxicity at 70.5 h [%]
CCOc1ccc(Cl)c(C(=O)N2CCCC(N3CCCC3)C2)n1 (stereo not drawn)	-2.98
CC(C)c1nccn1CCC(=O)NCC(C)(O)c1ccco1 (stereo not drawn)	-5.68
CC(C)COC(=O)N1CCCN(C(C)c2nc(C(C)C)no2)CC1 (stereo not drawn)	-3.98
CCc1nnc(C(C)N2CCCN(C(=O)OCC(C)C)CC2)o1 (stereo not drawn)	7.35
O=C(c1ccn(-c2ccc(F)cc2)n1)N(CCO)Cc1cccnc1	15.5
Cc1noc(C)c1CN(C)CC1CC(C2CCCCC2)=NO1 (stereo not drawn)	-2.46
CC(C)c1nc(CNc2ccc(N3CCC(CO)CC3)cn2)cs1	1.5
Cc1cc(CN(C)C(=O)NCc2ccco2)no1	-2.34
Cc1noc(C)c1CN(C)C(=O)NC(C)Cc1ccco1 (stereo not drawn)	-1.49
COc1ccc2c(c1)CN(c1nc(C)cc(C)n1)CC2	3.73
CS(=O)(=O)c1ccc2c(c1)N(C(=O)Cc1cccc(F)c1)CCC2	-0.9
CC(NC(=O)Nc1cnn(CC(N)=O)c1)c1ccc(Cl)s1 (stereo not drawn)	-1.05
CCc1ccc(O)c(C(=O)N2CCN(CC(=O)N3CCCCC3)CC2)c1	11.8
COCC(C)NC(=O)N(C)Cc1cc(C)on1 (stereo not drawn)	-5.5
COC(=O)C(CNC(=O)Nc1nncs1)Cc1cccc(C)c1 (stereo not drawn)	-3.4
CC(Cn1cncn1)NC(=O)NCC(C)(C)Cc1ccccc1 (stereo not drawn)	-4.62
Cc1ccc(C(C)(C)CNC(=O)NC(C)Cn2cncn2)cc1 (stereo not drawn)	-0.962
CCC(CO)NC(=O)Nc1ccc(OCC(F)(F)F)c(C)c1 (stereo not drawn)	-1.78
CC(C)n1nc2c(cc1=O)CN(Cc1nc(-c3ccco3)no1)CC2	-5.7
CC(CO)NC(=O)Nc1ccc(Cl)cc1OCC(F)(F)F (stereo not drawn)	-4.37
CNc1nc(C2CCCN2)nc2c1CCN(S(=O)(=O)C1CCCCC1)C2 (stereo not drawn)	12.5
COc1cccc(Nc2nc(N3CCCC3)nc3c2CNCC3)c1	43.7
